Holding throughout (format): biochemical
Assay [1] has as its target Thrombin (Homo sapiens, UniProt P00734). In words: Esterase assay, thrombin. The note with it: Z-AX-OMe substrate; for Esterase rate, Thrombin: X = P1 residue, rates approximately ± 10%; for % of maximum activity, Thrombin: percentage of the maximum activity. The source says:
(§1) Advantage was taken of this activity to develop an "esterase" assay which uses a pH indicator to visualise the hydrogen ion release caused by the action of proteases on peptide-ester substrates. A series of twenty compounds of the form, carbobenzoxy alanyl-X-methyl ester (Z-AX-OMe) were synthesised where "X" is one of the naturally occurring amino acids. These substrates were used in a 96 well microtitre plate assay to screen each mutant enzyme for activity and specificity. The reactions were followed visually or quantified using a standard ELISA plate reader. The esterase assay, using trypsin as a test enzyme and Z-Ala-Arg-OMe as substrate, was more sensitive as than traditional trypsin substrates (three times the rate obtained with benzoyl arginine ethyl aster and twenty times the rate of benzoyl arginine p-nitroanilide) (Whittaker et al., Analytical Biochemistry, 220, 238-243, 1994).
(§2) The present inventors produced a panel of substrates carbobenzoxy alanyl-X-methyl eater (Z-AX-OMe) where X is one of the naturally occurring amino acids. The reactivity of these substrates with a number of serine proteases is set out in Table 1 and FIG. 1.
(§3) Rates are A580 change/min./mg protease. Rates are also shown as a […]

For assay [2], the system named is Trypsin. As to the kind of experiment: Esterase assay, trypsin. The note with it: Z-AX-OMe substrate; for Esterase rate, Trypsin: X = P1 residue, rates approximately ± 10%; for % of maximum activity, Trypsin: percentage of the maximum activity.
From the text: as §1, §2, §3

For assay [3], the system named is Subtilisin. As to the kind of experiment: Esterase assay, subtilisin. Conditions: Z-AX-OMe substrate; for Esterase rate, Subtilisin: X = P1 residue, rates approximately ± 10%; for % of maximum activity, Subtilisin: percentage of the maximum activity.
From the text: as §1, §2, §3

In assay [4] the target is Proteinase K (Parengyodontium album, UniProt P06873). In words: Esterase assay, proteinase K. The note with it: Z-AX-OMe substrate; for Esterase rate, Proteinase K: X = P1 residue, rates approximately ± 10%; for % of maximum activity, Proteinase K: percentage of the maximum activity.
Chain of Proteinase K (P06873 106-384): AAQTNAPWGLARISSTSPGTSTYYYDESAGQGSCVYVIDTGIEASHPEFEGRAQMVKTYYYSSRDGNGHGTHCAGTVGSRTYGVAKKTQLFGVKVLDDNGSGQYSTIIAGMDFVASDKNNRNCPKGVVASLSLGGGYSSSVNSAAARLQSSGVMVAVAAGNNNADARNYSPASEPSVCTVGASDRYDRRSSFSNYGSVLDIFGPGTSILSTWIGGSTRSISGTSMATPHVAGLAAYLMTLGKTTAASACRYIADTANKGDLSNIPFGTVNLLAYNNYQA
From the text: as §1, §2, §3

In assay [5] the target is α-Lytic protease (Lysobacter enzymogenes, UniProt P00778). In words: Esterase assay, α-lytic protease. Conditions: Z-AX-OMe substrate; for Esterase rate, α-Lytic protease: X = P1 residue, rates approximately ± 10%; for % activity, α-Lytic protease: normalised to alanine.
Chain of α-Lytic protease (P00778 25-397 limits assumed): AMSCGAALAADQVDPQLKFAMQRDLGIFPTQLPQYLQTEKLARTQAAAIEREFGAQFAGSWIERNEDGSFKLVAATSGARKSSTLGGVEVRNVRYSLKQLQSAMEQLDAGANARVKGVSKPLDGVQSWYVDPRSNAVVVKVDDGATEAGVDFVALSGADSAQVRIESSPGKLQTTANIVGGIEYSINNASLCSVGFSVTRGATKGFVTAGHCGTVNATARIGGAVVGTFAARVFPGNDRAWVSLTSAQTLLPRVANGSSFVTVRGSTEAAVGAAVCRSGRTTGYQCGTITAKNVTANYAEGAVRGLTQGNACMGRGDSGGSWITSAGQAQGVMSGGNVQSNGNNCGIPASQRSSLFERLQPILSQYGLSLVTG
From the text: as §1, §2, §3

Assay [6] deals with Chymotrypsin (Bos taurus, UniProt P00766). As to the kind of experiment: Esterase assay, chymotrypsin. Conditions: Z-AX-OMe substrate; for Esterase rate, Chymotrypsin: X = P1 residue, rates approximately ± 10%; for % of maximum activity, Chymotrypsin: percentage of the maximum activity.
From the text: as §1, §2, §3

For assay [7], the target named is Elastase (Sus scrofa, UniProt P00772). In words: Esterase assay, elastase. The note with it: Z-AX-OMe substrate; for Esterase rate, Elastase: X = P1 residue, rates approximately ± 10%; for % activity, Elastase: normalised to alanine.
Chain of Elastase (P00772 27-266): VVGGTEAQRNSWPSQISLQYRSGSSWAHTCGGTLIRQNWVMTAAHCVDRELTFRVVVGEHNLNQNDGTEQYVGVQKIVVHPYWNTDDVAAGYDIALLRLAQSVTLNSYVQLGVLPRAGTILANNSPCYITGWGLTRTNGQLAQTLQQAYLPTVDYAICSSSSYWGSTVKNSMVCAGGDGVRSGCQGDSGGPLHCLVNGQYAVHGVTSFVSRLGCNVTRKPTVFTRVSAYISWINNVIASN
From the text: as §1, §2, §3

Where a SMILES comes first, the peptide text is derived from it. The star is where a group is joined. Cbz = O=C(OCc1ccccc1)*

These results are taken from US5932410A, “Assay for the detection of proteases” (Commonwealth Scientific and Industrial Research …, priority 1994, dated 1999).

`COC(=O)[C@H](CC(C)C)NC(=O)[C@H](C)NC(=O)OCc1ccccc1` [Leu] (Cbz-Ala-Leu-OMe): in assay [1], the “Esterase rate, Thrombin” value is listed as 0 A580 change/min./mg protease and the “% of maximum activity, Thrombin” value came to 0%. For the same compound, in assay [2], the “Esterase rate, Trypsin” value is 0 A580 change/min./mg protease and the “% of maximum activity, Trypsin” value amounted to 0%. In assay [3], the “Esterase rate, Subtilisin” value was 1329 A580 change/min./mg protease and the “% of maximum activity, Subtilisin” value is listed as 61.8%. In assay [4], the “Esterase rate, Proteinase K” value is 240 A580 change/min./mg protease and the “% of maximum activity, Proteinase K” value is reported as 31.0%. For the same compound, in assay [5], the “Esterase rate, α-Lytic protease” value is 0 A580 change/min./mg protease and the “% activity, α-Lytic protease” value was 0%. Also, in assay [6], the “Esterase rate, Chymotrypsin” value is on record as 2.4 A580 change/min./mg protease and the “% of maximum activity, Chymotrypsin” value is 4.3%. Also, in assay [7], the “Esterase rate, Elastase” value was 3.4 A580 change/min./mg protease and the “% activity, Elastase” value is recorded as 21.7%.

Consider `COC(=O)[C@H](CCCCN)NC(=O)[C@H](C)NC(=O)OCc1ccccc1` [Lys] (Cbz-Ala-Lys-OMe), for which, in assay [1], the “Esterase rate, Thrombin” value is listed as 4.3 A580 change/min./mg protease and the “% of maximum activity, Thrombin” value was 49.0%. Further, in assay [2], the “Esterase rate, Trypsin” value is 155.8 A580 change/min./mg protease and the “% of maximum activity, Trypsin” value was 44.0%. Besides, in assay [3], the “Esterase rate, Subtilisin” value is reported as 153 A580 change/min./mg protease and the “% of maximum activity, Subtilisin” value was 7.1%. Further, in assay [4], the “Esterase rate, Proteinase K” value is reported as 61 A580 change/min./mg protease and the “% of maximum activity, Proteinase K” value came to 7.9%. In addition, in assay [5], the “Esterase rate, α-Lytic protease” value is reported as 0 A580 change/min./mg protease and the “% activity, α-Lytic protease” value amounted to 0%. For the same compound, in assay [6], the “Esterase rate, Chymotrypsin” value was 1.5 A580 change/min./mg protease and the “% of maximum activity, Chymotrypsin” value was 2.7%. Moreover, in assay [7], the “Esterase rate, Elastase” value is listed as 0 A580 change/min./mg protease and the “% activity, Elastase” value was 0%.

In the case of `COC(=O)[C@H](CCSC)NC(=O)[C@H](C)NC(=O)OCc1ccccc1` [Met] (Cbz-Ala-Met-OMe), in assay [1], the “Esterase rate, Thrombin” value is given as 0 A580 change/min./mg protease and the “% of maximum activity, Thrombin” value came out at 0%. Besides, in assay [2], the “Esterase rate, Trypsin” value is reported as 0 A580 change/min./mg protease and the “% of maximum activity, Trypsin” value is listed as 0%. In assay [3], the “Esterase rate, Subtilisin” value is listed as 2149 A580 change/min./mg protease and the “% of maximum activity, Subtilisin” value was 100%. In assay [4], the “Esterase rate, Proteinase K” value is recorded as 525 A580 change/min./mg protease and the “% of maximum activity, Proteinase K” value is given as 67.7%. In assay [5], the “Esterase rate, α-Lytic protease” value was 2.0 A580 change/min./mg protease and the “% activity, α-Lytic protease” value worked out at 32.3%. Moreover, in assay [6], the “Esterase rate, Chymotrypsin” value is given as 6.6 A580 change/min./mg protease and the “% of maximum activity, Chymotrypsin” value was determined as 12.0%. The “Esterase rate, Elastase” value in assay [7] was “trace”.

For the compound `COC(=O)[C@H](Cc1ccccc1)NC(=O)[C@H](C)NC(=O)OCc1ccccc1` [Phe], in assay [1], the “Esterase rate, Thrombin” value is 0 A580 change/min./mg protease and the “% of maximum activity, Thrombin” value was 0%. Moreover, in assay [2], the “Esterase rate, Trypsin” value is listed as 2.9 A580 change/min./mg protease and the “% of maximum activity, Trypsin” value worked out at 0.8%. Besides, in assay [3], the “Esterase rate, Subtilisin” value is 998 A580 change/min./mg protease and the “% of maximum activity, Subtilisin” value was 46.0%. For the same compound, in assay [4], the “Esterase rate, Proteinase K” value is given as 342 A580 change/min./mg protease and the “% of maximum activity, Proteinase K” value came out at 44.1%. Further, in assay [5], the “Esterase rate, α-Lytic protease” value is on record as 0 A580 change/min./mg protease and the “% activity, α-Lytic protease” value turned out to be 0%. For the same compound, in assay [6], the “Esterase rate, Chymotrypsin” value is 37.8 A580 change/min./mg protease and the “% of maximum activity, Chymotrypsin” value is listed as 68.5%. In addition, in assay [7], the “Esterase rate, Elastase” value is given as 0 A580 change/min./mg protease and the “% activity, Elastase” value is recorded as 0%.

Regarding `COC(=O)[C@@H]1CCCN1C(=O)[C@H](C)NC(=O)OCc1ccccc1` [Pro] (Cbz-Ala-Pro-OMe), in assay [1], the “Esterase rate, Thrombin” value is listed as 0 A580 change/min./mg protease and the “% of maximum activity, Thrombin” value was determined as 0%. Besides, in assay [2], the “Esterase rate, Trypsin” value is 0 A580 change/min./mg protease and the “% of maximum activity, Trypsin” value worked out at 0%. Besides, the “Esterase rate, Subtilisin” value in assay [3] is “trace”. Also, in assay [4], the “Esterase rate, Proteinase K” value is listed as “trace”. Further, in assay [5], the “Esterase rate, α-Lytic protease” value is recorded as 0 A580 change/min./mg protease and the “% activity, α-Lytic protease” value came out at 0%. In addition, in assay [6], the “Esterase rate, Chymotrypsin” value is recorded as 0 A580 change/min./mg protease and the “% of maximum activity, Chymotrypsin” value was 0%. Further, in assay [7], the “Esterase rate, Elastase” value is on record as 0 A580 change/min./mg protease and the “% activity, Elastase” value was 0%.

Take `COC(=O)[C@H](CO)NC(=O)[C@H](C)NC(=O)OCc1ccccc1` [Ser] (Cbz-Ala-Ser-OMe): in assay [1], the “Esterase rate, Thrombin” value is 0 A580 change/min./mg protease and the “% of maximum activity, Thrombin” value amounted to 0%. Moreover, in assay [2], the “Esterase rate, Trypsin” value is reported as 0 A580 change/min./mg protease and the “% of maximum activity, Trypsin” value is recorded as 0%. In assay [3], the “Esterase rate, Subtilisin” value is reported as 366 A580 change/min./mg protease and the “% of maximum activity, Subtilisin” value came to 17.0%. Besides, in assay [4], the “Esterase rate, Proteinase K” value was 348 A580 change/min./mg protease and the “% of maximum activity, Proteinase K” value came out at 44.9%. For the same compound, in assay [5], the “Esterase rate, α-Lytic protease” value was 0.7 A580 change/min./mg protease and the “% activity, α-Lytic protease” value came to 11.3%. In addition, the “Esterase rate, Chymotrypsin” value in assay [6] is given as “trace”. Moreover, in assay [7], the “Esterase rate, Elastase” value was 0.4 A580 change/min./mg protease and the “% activity, Elastase” value stood at 3.6%.

Regarding `COC(=O)[C@@H](NC(=O)[C@H](C)NC(=O)OCc1ccccc1)[C@@H](C)O` [Thr] (Cbz-Ala-Thr-OMe), in assay [1], the “Esterase rate, Thrombin” value was 0 A580 change/min./mg protease and the “% of maximum activity, Thrombin” value came out at 0%. For the same compound, in assay [2], the “Esterase rate, Trypsin” value is reported as 0 A580 change/min./mg protease and the “% of maximum activity, Trypsin” value came out at 0%. In assay [3], the “Esterase rate, Subtilisin” value is given as 123 A580 change/min./mg protease and the “% of maximum activity, Subtilisin” value is given as 5.7%. Also, in assay [4], the “Esterase rate, Proteinase K” value was 90 A580 change/min./mg protease and the “% of maximum activity, Proteinase K” value stood at 11.6%. In addition, in assay [5], the “Esterase rate, α-Lytic protease” value is reported as 4.2 A580 change/min./mg protease and the “% activity, α-Lytic protease” value was determined as 67.7%. Besides, in assay [6], the “Esterase rate, Chymotrypsin” value is reported as “trace”. Besides, in assay [7], the “Esterase rate, Elastase” value is on record as 3.1 A580 change/min./mg protease and the “% activity, Elastase” value amounted to 19.7%.

On to `COC(=O)[C@H](Cc1c[nH]c2ccccc12)NC(=O)[C@H](C)NC(=O)OCc1ccccc1` [Trp] (Cbz-Ala-Trp-OMe), for which, in assay [1], the “Esterase rate, Thrombin” value was 0 A580 change/min./mg protease and the “% of maximum activity, Thrombin” value is reported as 0%. For the same compound, the “Esterase rate, Trypsin” value in assay [2] is “trace”. Besides, in assay [3], the “Esterase rate, Subtilisin” value is recorded as 216 A580 change/min./mg protease and the “% of maximum activity, Subtilisin” value stood at 10.1%. Moreover, in assay [4], the “Esterase rate, Proteinase K” value was 353 A580 change/min./mg protease and the “% of maximum activity, Proteinase K” value was determined as 45.5%. Further, in assay [5], the “Esterase rate, α-Lytic protease” value is 0 A580 change/min./mg protease and the “% activity, α-Lytic protease” value is 0%. Moreover, in assay [6], the “Esterase rate, Chymotrypsin” value was 27.2 A580 change/min./mg protease and the “% of maximum activity, Chymotrypsin” value came to 49.3%. In assay [7], the “Esterase rate, Elastase” value was 0 A580 change/min./mg protease and the “% activity, Elastase” value is listed as 0%.

As to `COC(=O)[C@@H](NC(=O)[C@H](C)NC(=O)OCc1ccccc1)C(C)C` [Val] (Cbz-Ala-Val-OMe), in assay [1], the “Esterase rate, Thrombin” value was 0 A580 change/min./mg protease and the “% of maximum activity, Thrombin” value is 0%. For the same compound, in assay [2], the “Esterase rate, Trypsin” value is reported as 0 A580 change/min./mg protease and the “% of maximum activity, Trypsin” value is on record as 0%. In assay [3], the “Esterase rate, Subtilisin” value is 35 A580 change/min./mg protease and the “% of maximum activity, Subtilisin” value was 1.6%. In assay [4], the “Esterase rate, Proteinase K” value is reported as 97 A580 change/min./mg protease and the “% of maximum activity, Proteinase K” value was 12.5%. Further, in assay [5], the “Esterase rate, α-Lytic protease” value is listed as 1.3 A580 change/min./mg protease and the “% activity, α-Lytic protease” value is 21.0%. In assay [6], the “Esterase rate, Chymotrypsin” value is 0 A580 change/min./mg protease and the “% of maximum activity, Chymotrypsin” value stood at 0%. Also, in assay [7], the “Esterase rate, Elastase” value is recorded as 2.1 A580 change/min./mg protease and the “% activity, Elastase” value is listed as 13.4%.
